Measurements published in US20020045268A1, “MEASURING ANALYTES WITH METAL-LIGAND COMPLEX PROBES” (priority 1997, published 2002).
“Also recorded” adds a separate entry of the source.

Key:
Assay type in all cases: physicochemical
[1] = pH-dependent intensity, phase and modulation data of FIG. 15 and emission spectrum of the dcbpy complex; conditions: relative to Ru(bpy)3
Excerpt: FIG. 15 graphically depicts data in connection with the metal-ligand complex [Ru(bpy)2 (dcbpy)]Cl4 showing pH-dependent intensity, phase and modulation data.
The emission shift to longer wavelengths at low pH (FIG. 2) seems to be generally understandable in terms of the electronic properties of the excited MLCs. The long wavelength emission is thought to result from a metal-to-ligand charge transfer (MLCT) state in which an electron is donated from Ru to the ligand. The protonated form of deabpy is probably a better electron acceptor, lowering the energy of the MLCT state, shifting the emission to longer wavelengths and thereby decreasing the lifetime. […] Terpetschnig, E., H. Szmacinski, H. Malak and J. R. Lakowicz. Biophys. J., 68:342-350; Fluorescence Polarization Immunoassay of a High Molecular Weight Antigen Based on a Long-Lifetime Ru-Ligand Complex (1995). Terpetschnig, E., H. Szmacinski and J. R. Lakowicz. Anal. Biochem., 227:140-147].
The dcbpy ligand is probably a better electron acceptor than bpy. […] It could be used at a pH in the range of pH 2 to 5.

[2] = frequency-domain intensity decay (lifetime) measurements, single and global multi-exponential analysis
Excerpt: For the phase/modulation measurements (FIGS. 6-9), an air-cooled Argon ion laser (output at 488 nm) was used as the excitation light source, and the modulation frequency was set at 700 kHz. On the emission side, a long-wave pass filter was used to collect the fluorescence with wavelength longer than 600 nm. The reference solution used here was an aqueous solution of Texas Red with a reference lifetime of 4 ns. For the lifetime measurements, we used the same instrumentation and reference solution, and 23 different modulation frequencies ranging from 11 kHz to 2 MHZ.
Single and multi-exponential intensity decays were recovered from the multi-frequency data as described previously [see, Construction and Performance of a Variable-Frequency Phase-Modulation Fluorometer (1985). Lakowicz, J. R. and B. P. Maliwal. Biophys. Chem., 21:61-78; Frequency-Domain Fluorescence Spectroscopy (1991) in Topics in Fluorescence Spectroscopy, Vol. 1: Techniques, (Lakowicz, J. R., Ed.). Plenum Press, New York, pp. 293-355]. The data were analyzed globally in terms of the multi-exponential model [formula]
where Ik(t) are the intensity decays at each pH (k) value, Ti are the decay times and αik are the amplitudes. For the global analysis we assumed that the αik values would depend on pH, but that the two lifetimes would be independent of pH. The goodness-of-fit was judged by the usual XR^2 criterion with assumed uncertainties in phase δp=0.2° and modulation δm=0.005.

[3] = pH-dependent absorption at 450 nm (ground state pKa); conditions: from changes in absorption at 450 nm
Experimental: Chemicals and solvents were purchased from Aldrich and used without further purification. Absorption spectra were measured using a Perkin Elmer lambda 6 UV/Vis spectrophotometer. Observed were two isosbestic points at 414 nm and 475 nm. The absorbance at 450 nm of different samples were measured to obtain the ground state pKa.
(§1) Ru(bpy)2 (deabpy) (PF6)2 solutions at different pH value were prepared by dissolving equal amount of aqueous Ru(bpy)2 (deabpy) (PF6)2 in different buffer solutions. From pH 2 to pH 4.7, we used citrate buffer; from pH 4.8 to pH 6.3 we used acetate buffer; from pH 6.4 to pH 7.8 we used phosphate buffer; from pH 7.8 to pH 9.0 we used tris buffer, from pH 9.2 to pH 11 we used carbonate/bicarbonate buffer, from pH 11 to pH 12 we used dibasic sodium phosphate/sodium hydroxide buffer. Unless stated otherwise the buffer concentrations were 20 mM and contained 0.1 M potassium chloride to maintain ionic strength.

[4] = pH-dependent fluorescence emission spectra and intensities in buffers
Experimental: as §1
The fluorescence emission spectra were measured using Aminco Bowman Series AB2 Luminescence Spectrometer with the excitation wavelength of 414 nm. […] The emission intensity ratios (620 nm/650 nm) of the different sample were also recorded.

For O=C(O)c1ccnc(-c2cc(C(=O)O)ccn2)c1.[Ru+2].c1ccc(-c2ccccn2)nc1.c1ccc(-c2ccccn2)nc1 [[Ru(dcbpy)(bpy)2]^2+], the emission spectrum shift [1] was “red shift”.
For CCN(CC)Cc1ccnc(-c2cc(CN(CC)CC)ccn2)c1.[Ru+2].c1ccc(-c2ccccn2)nc1.c1ccc(-c2ccccn2)nc1 [[Ru(deabpy)(bpy)2]^2+], the mean decay time ([2]; high pH) was about 390 ns, the mean decay time ([2]; low pH, protonated amino groups) was about 240 ns and the “α1, amplitude of 235 ns component, global analysis” value (from here on “α1, amplitude of 235 ns component”) ([2]; pH 2.4) was 0.964. The “α2, amplitude of 380 ns component, global analysis” value (from here on “α2, amplitude of 380 ns component”) ([2]; pH 2.4) was 0.036, the “τ2 (ns), global analysis” value ([2]; pH 2.4) was 380 ns and the “τi (ns), global analysis” value ([2]; pH 2.4) was 235 ns. For the same compound, the “τ(ns), single decay time analysis” value ([2]; pH 2.40) was 236 ns, the “α1, amplitude of 235 ns component” value ([2]; pH 5.8) was 0.893 and the “α2, amplitude of 380 ns component” value ([2]; pH 5.8) was 0.107. The “τ2 (ns), global analysis” value ([2]; pH 5.8) was 380 ns, the “τi (ns), global analysis” value ([2]; pH 5.8) was 235 ns and the “τ(ns), single decay time analysis” value ([2]; pH 5.89) was 252 ns. The “α1, amplitude of 235 ns component” value ([2]; pH 6.91) was 0.828, the “α2, amplitude of 380 ns component” value ([2]; pH 6.91) was 0.172 and the “τ2 (ns), global analysis” value ([2]; pH 6.91) was 380 ns. For the same compound, the “τ(ns), single decay time analysis” value ([2]; pH 6.91) was 262 ns, the “τi (ns), global analysis” value ([2]; pH 6.91) was 235 ns and the “α1, amplitude of 235 ns component” value ([2]; pH 7.45) was 0.687. For the same compound, the “α2, amplitude of 380 ns component” value ([2]; pH 7.45) was 0.313, the “τ2 (ns), global analysis” value ([2]; pH 7.45) was 380 ns and the “τ(ns), single decay time analysis” value ([2]; pH 7.45) was 284 ns. The “τi (ns), global analysis” value ([2]; pH 7.45) was 235 ns, the “α1, amplitude of 235 ns component” value ([2]; pH 8.02) was 0.380 and the “α2, amplitude of 380 ns component” value ([2]; pH 8.02) was 0.620. For the same compound, the “τ2 (ns), global analysis” value ([2]; pH 8.02) was 380 ns, the “τ(ns), single decay time analysis” value ([2]; pH 8.02) was 327 ns and the “τi (ns), global analysis” value ([2]; pH 8.02) was 235 ns. For the same compound, the “α1, amplitude of 235 ns component” value ([2]; pH 13.5) was 0, the “α2, amplitude of 380 ns component” value ([2]; pH 13.5) was 1.0 and the “τ2 (ns), global analysis” value ([2]; pH 13.5) was 380 ns. The “τ(ns), single decay time analysis” value ([2]; pH 13.5) was 392 ns, the “τi (ns), global analysis” value ([2]; pH 13.5) was 235 ns and the “decay time, global analysis” value ([2]; protonated form) was 235 ns. For the same compound, the “decay time, global analysis” value ([2]; unprotonated form) was 380 ns, the “ground state pKa” value [3] was 7.14 and the “dependence of apparent pKa on ionic strength / buffer concentration” value ([4]; 20, 50 and 100 mM phosphate buffer) was “not found to be dependent on ionic strength; also recorded: same apparent pKa values”. The emission maximum ([4]; acidic sample (low pH), excitation 414 nm) was 650 nm, the “increase of emission spectrum” value ([4]; as pH increases from 2.52 to 11.8) was “about 3 fold” and the emission maximum ([4]; basic sample, excitation 414 nm) was 620 nm. For the same compound, the “apparent pKa observed by fluorescence” value ([4]; pH-dependent fluorescence intensities, excitation 414 nm) was about 7.5.
